For the assay, the system named is P. falciparum Cam3.II lines. Description: Isobologram analyses (fixed-ratio drug combinations). Type of assay: cell-based, Plasmodium falciparum. The method, then:
Assays were performed with fixed ratios of drug combinations (1:0, 4:1, 2:1, 1:1, 1:2, 1:4, and 0:1), tested in duplicate. Combinations were prepared from 16×IC50 drug stocks and tested across a range of two-fold dilutions. Assays were conducted with asynchronous cultures exposed for 72 hr or with tightly synchronized rings or trophozoites (tested at 0–3 hr or 24–27 hr post-invasion, respectively) exposed for 3 hr. Post-pulse drug washouts were conducted as described above for in vitro determination of IC50 levels. IC50 values were derived for each compound tested alone, and fractional IC50 (FIC50) values were determined for each compound tested in combination (FIC50 = […]) and plotted for each drug combination. For each combination, the mean of the sums of FIC50 values at each combination (mean ΣFIC50) was also calculated and the results illustrated using heat maps.

[1] abbreviates: combined with WLL, Asynchronous, 72 hr, Cam3.II K13C580Y.
The mark [2] stands for this setting: combined with WLL, Asynchronous, 72 hr, Cam3.II K13WT.
The mark [3] stands for this setting: combined with WLW, Asynchronous, 72 hr, Cam3.II K13C580Y.
[4] abbreviates: combined with WLW, Asynchronous, 72 hr, Cam3.II K13WT.
Where [5] appears, read: across asynchronous parasites, early rings and trophozoites.
Setting [6] is: combined with WLL, Rings, 3 hr exposure, Cam3.II K13C580Y.
Setting [7] is: combined with WLL, Rings, 3 hr exposure, Cam3.II K13WT.
Where [8] appears, read: combined with WLL, Trophozoites, 3 hr exposure, Cam3.II K13C580Y.
Setting [9] is: combined with WLL, Trophozoites, 3 hr exposure, Cam3.II K13WT.
Where [10] appears, read: combined with WLW, Rings, 3 hr exposure, Cam3.II K13C580Y.
Setting [11] is: combined with WLW, Rings, 3 hr exposure, Cam3.II K13WT.
Setting [12] is: combined with WLW, Trophozoites, 3 hr exposure, Cam3.II K13C580Y.
The mark [13] stands for this setting: combined with WLW, Trophozoites, 3 hr exposure, Cam3.II K13WT.
[14] abbreviates: asynchronous parasites, rings and trophozoites (S1 Fig).
The mark [15] stands for this setting: asynchronous parasites, early rings and trophozoites, Cam3.II K13WT and K13C580Y.

“Also recorded” adds a separate entry of the source.

As for `CC(=O)N1CCN(c2ccc(CN(C(=O)/C=C/c3ccc(C(C)(C)C)cc3)[C@@H](Cc3ccccc3)C(=O)N3CCN(Cc4ccc(C#N)cc4)CC3)cc2)CC1` [ACT-451840], the “Interaction with WLL or WLW” value (asynchronous parasites, 72 hr) is “antagonism”. Moreover, the “Mean of the sums of FIC50 (mean ΣFIC50)” value came out at 1.27 under setting [1], 1.34 under setting [2], 1.14 under setting [3] and 1.16 under setting [4].

Regarding `O=C(O)CCc1cccc2c1B(O)OC2` [AN3661], for the setting “asynchronous parasites, 72 hr”, the “Interaction with WLL or WLW” value is on record as “antagonism”. Moreover, the “Mean of the sums of FIC50 (mean ΣFIC50)” value runs as follows: under setting [1], 1.58; under setting [2], 1.69; under setting [3], 1.63; under setting [4], 1.64.

For the compound `O=C1C(O)=C([C@H]2CC[C@H](c3ccc(Cl)cc3)CC2)C(=O)c2ccccc21` [ATQ, atovaquone], the “Interaction with WLL or WLW” value under setting [5] was “Additive to antagonistic; also recorded: antagonism observed in asynchronous parasites and early rings was attenuated in trophozoites”. The “Mean of the sums of FIC50 (mean ΣFIC50)” value runs as follows: under setting [1], 1.22; under setting [2], 1.33; under setting [6], 1.54; under setting [7], 1.64; under setting [8], 0.99; under setting [9], 1.11. The “Mean of the sums of FIC50 (mean ΣFIC50)” value under setting [3] came to 1.16; the “Mean of the sums of FIC50 (mean ΣFIC50)” value under setting [4] was 1.28; the “Mean of the sums of FIC50 (mean ΣFIC50)” value under setting [10] came to 1.20; the “Mean of the sums of FIC50 (mean ΣFIC50)” value under setting [11] is 1.17; the “Mean of the sums of FIC50 (mean ΣFIC50)” value under setting [12] was found to be 1.07; the “Mean of the sums of FIC50 (mean ΣFIC50)” value under setting [13] was 1.02.

On to `C[C@@H]1C[C@@H]([C@H](O)CC2CC(=O)NC(=O)C2)C(=O)[C@@H](C)C1` [CHX, cycloheximide], for which the “Interaction with WLL or WLW” value (asynchronous parasites, 72 hr) is “antagonism”. Also, the “Mean of the sums of FIC50 (mean ΣFIC50)” value under setting [1] is listed as 1.40, the “Mean of the sums of FIC50 (mean ΣFIC50)” value under setting [2] is reported as 1.44, the “Mean of the sums of FIC50 (mean ΣFIC50)” value under setting [3] came to 1.37 and the “Mean of the sums of FIC50 (mean ΣFIC50)” value under setting [4] was 1.29.

With `CCN(CC)CCCC(C)Nc1ccnc2cc(Cl)ccc12` (stereo not drawn) [CQ, chloroquine], the “Interaction with WLL or WLW” value under setting [5] is reported as “Additive to antagonistic; also recorded: moderate to potent antagonism”. Besides, the “Mean of the sums of FIC50 (mean ΣFIC50)” value under setting [1] came to 1.53; the “Mean of the sums of FIC50 (mean ΣFIC50)” value under setting [2] came out at 1.41; the “Mean of the sums of FIC50 (mean ΣFIC50)” value under setting [6] stood at 1.70; the “Mean of the sums of FIC50 (mean ΣFIC50)” value under setting [7] amounted to 1.69; the “Mean of the sums of FIC50 (mean ΣFIC50)” value under setting [8] is 1.75; the “Mean of the sums of FIC50 (mean ΣFIC50)” value under setting [9] is 1.89. The “Mean of the sums of FIC50 (mean ΣFIC50)” value was 1.36 under setting [3]; 1.29 under setting [4]; 1.54 under setting [10]; 1.45 under setting [11]; 1.41 under setting [12]; 1.57 under setting [13].

For the compound `O=C(NCCN1CCCC1)c1cc(-c2ccc(CN3CCOCC3)cc2)nc2ccc(F)cc12` [DDD107498], the “Interaction with WLL or WLW” value (asynchronous parasites, 72 hr) is “antagonism”. The “Mean of the sums of FIC50 (mean ΣFIC50)” value by setting is: under setting [1], 1.60; under setting [2], 1.65; under setting [3], 1.44; under setting [4], 1.28.

Regarding `Cc1cc(Nc2ccc(S(F)(F)(F)(F)F)cc2)n2nc(C(C)(F)F)nc2n1` [DSM265], the “Interaction with WLL or WLW” value (asynchronous parasites, 72 hr) is on record as “antagonism”. For the same compound, the “Mean of the sums of FIC50 (mean ΣFIC50)” value by setting is: under setting [1], 1.46; under setting [2], 1.34; under setting [3], 1.30; under setting [4], 1.24.

As to `CC1(C)C(N(O)C(=O)Nc2ccc(Cl)cc2)N(c2ccc(Cl)cc2)C(=O)N1CC(=O)N/N=C/C=C/c1ccc([N+](=O)[O-])o1` (stereo not drawn) [ESI, eeyarestatin I], the “Interaction with WLW (isobologram)” value runs as follows: (asynchronous parasites and trophozoites) “additive”; (early ring stage) “Mild synergy”. Under setting [14], the “Interaction with WLL (isobologram)” value is “largely additive”. In addition, the “Mean of the sums of FIC50 (mean ΣFIC50)” value reads like this: under setting [1], 1.29; under setting [2], 1.28; under setting [6], 1.09; under setting [7], 1.05; under setting [8], 1.05; under setting [9], 1.19. The “Mean of the sums of FIC50 (mean ΣFIC50)” value reads like this: under setting [3], 0.97; under setting [4], 0.98; under setting [10], 0.80; under setting [11], 0.73; under setting [12], 1.08; under setting [13], 0.97.

Consider `O=C(CC1NCCCC1O)Cn1cnc2cc(Br)c(Cl)cc2c1=O` (stereo not drawn) [HFG, halofuginone], for which the “Interaction with WLL or WLW” value (asynchronous parasites, 72 hr) is “antagonism”. Further, the “Mean of the sums of FIC50 (mean ΣFIC50)” value under setting [1] stood at 1.46, the “Mean of the sums of FIC50 (mean ΣFIC50)” value under setting [2] is reported as 1.47, the “Mean of the sums of FIC50 (mean ΣFIC50)” value under setting [3] was determined as 1.53 and the “Mean of the sums of FIC50 (mean ΣFIC50)” value under setting [4] amounted to 1.42.

With `CCCCN(CCCC)CC(O)c1cc(Cl)cc2c1-c1ccc(Cl)cc1/C2=C/c1ccc(Cl)cc1` (stereo not drawn) [LMF, lumefantrine], the “Interaction with WLL or WLW” value under setting [5] is “Additive to antagonistic”; the “Interaction with WLL or WLW” value (asynchronous parasites, 72 hr) is “mild antagonism”; the “Interaction with WLL or WLW” value (early rings and trophozoites) was “largely additive”. Also, the “Mean of the sums of FIC50 (mean ΣFIC50)” value is 1.24 under setting [1]; 1.42 under setting [2]; 1.13 under setting [6]; 1.23 under setting [7]; 1.24 under setting [8]; 1.12 under setting [9]. Further, the “Mean of the sums of FIC50 (mean ΣFIC50)” value turned out to be 1.07 under setting [3]; 1.32 under setting [4]; 0.98 under setting [10]; 0.95 under setting [11]; 1.01 under setting [12]; 1.16 under setting [13].

`CN(C)c1ccc2nc3ccc(=[N+](C)C)cc-3sc2c1` [MB, methylene blue]: under setting [15], the “Interaction with WLW (isobologram)” value is reported as “synergy”. For the same compound, under setting [14], the “Interaction with WLL (isobologram)” value is on record as “synergy with WLL was limited to the early ring stage”. Also, the “Mean of the sums of FIC50 (mean ΣFIC50)” value is 1.20 under setting [1]; 1.22 under setting [2]; 0.84 under setting [6]; 0.87 under setting [7]; 0.83 under setting [3]; 0.89 under setting [4]. Further, the “Mean of the sums of FIC50 (mean ΣFIC50)” value reads like this: under setting [10], 0.36; under setting [11], 0.40; under setting [12], 0.78; under setting [13], 0.71.

As for `C[C@H]1Cc2c([nH]c3cc(Cl)c(F)cc23)[C@@]2(N1)C(=O)Nc1ccc(Cl)cc12` [NITD609], for the setting “asynchronous parasites, 72 hr”, the “Interaction with WLL or WLW” value is recorded as “antagonism”. In addition, the “Mean of the sums of FIC50 (mean ΣFIC50)” value turned out to be 1.67 under setting [1], 1.58 under setting [2], 1.44 under setting [3] and 1.39 under setting [4].

Turning to `c1cc([C@H]2CC[C@]3(CC2)OO[C@]2(O3)C3CC4CC(C3)CC2C4)ccc1OCCN1CCOCC1` [OZ439], under setting [15], the “Interaction with WLW (isobologram)” value is given as “synergy”. Moreover, the “Mean of the sums of FIC50 (mean ΣFIC50)” value is, setting by setting: under setting [1], 1.10; under setting [2], 1.21; under setting [6], 0.79; under setting [7], 0.65; under setting [8], 0.67; under setting [9], 0.64. Moreover, the “Mean of the sums of FIC50 (mean ΣFIC50)” value under setting [3] is recorded as 0.76; the “Mean of the sums of FIC50 (mean ΣFIC50)” value under setting [4] worked out at 0.85; the “Mean of the sums of FIC50 (mean ΣFIC50)” value under setting [10] worked out at 0.40; the “Mean of the sums of FIC50 (mean ΣFIC50)” value under setting [11] is listed as 0.35; the “Mean of the sums of FIC50 (mean ΣFIC50)” value under setting [12] amounted to 0.51; the “Mean of the sums of FIC50 (mean ΣFIC50)” value under setting [13] came out at 0.48. Also, the “Interaction with WLL (isobologram)” value (early rings and trophozoites) is recorded as “Synergy”.

For the origin of these results see article PMC6553790 (PLoS Pathogens, 2019).
